Usually inhibition stands for the change of the read-out against control, counted positive when it falls.

For the experiment, the target named is T1, human vasopressin V2 receptor subtype (Homo sapiens, UniProt P30518).
T1 construct: host or cells: CHO cells, stably transfected (pZeoSV vector)
T1 sequence (P30518 whole entry): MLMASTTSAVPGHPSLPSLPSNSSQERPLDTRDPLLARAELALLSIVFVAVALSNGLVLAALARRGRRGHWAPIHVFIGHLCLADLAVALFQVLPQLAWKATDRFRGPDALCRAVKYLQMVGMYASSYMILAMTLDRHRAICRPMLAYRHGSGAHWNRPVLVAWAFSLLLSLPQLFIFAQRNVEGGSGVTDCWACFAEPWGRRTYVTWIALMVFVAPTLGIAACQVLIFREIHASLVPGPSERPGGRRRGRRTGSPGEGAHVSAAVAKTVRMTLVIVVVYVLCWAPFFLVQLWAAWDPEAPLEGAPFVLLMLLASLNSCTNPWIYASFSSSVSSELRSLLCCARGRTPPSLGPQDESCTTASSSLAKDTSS
Briefly: Vasopressin binding in CHO cell membranes expressing human vasopressin V2 subtype receptors ([3H]arginine vasopressin radioligand binding). As to conditions: 100 nM. The method, boiled down:
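Values are IC50 in nM or percent inhibition at a stated concentration, from scintillation counts after filtration. Binding ran 60 min at room temperature: [3H]arginine vasopressin, human V2-transfected CHO membranes (25 to 50 μg protein/well), pH 7.4 Tris-HCl buffer containing MgCl2, BSA, protease inhibitors.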
For `COc1ccccc1-c1ccc(C(=O)N2Cc3ccc(C(=O)N(C)CCc4ccncc4)n3Cc3ccccc32)cc1OC` [Example 125, 10-[(2,2′-Dimethoxy-[1,1′-biphenyl]-4-yl)carbonyl]-N-methyl-N-[2-(4-pyridinyl)ethyl]-10,11-dihydro-5H-pyrrolo[2,1-c][1,4]benzodiazepine-3-carboxamide], the inhibition at 0.1 µM is -10%. The result for `COc1ccccc1-c1ccc(C(=O)N2Cc3ccc(C(=O)N(C)CCc4ccncc4)n3Cc3ccccc32)cc1C` [Example 126, 10-[(2′-Methoxy-2-methyl-[1,1′-biphenyl]-4-yl)carbonyl]-N-methyl-N-[2-(4-pyridinyl)ethyl]-10,11-dihydro-5H-pyrrolo[2,1-c][1,4]benzodiazepine-3-carboxamide] reads 5%. With `Cc1ccccc1-c1ccc(C(=O)N2Cc3ccc(C(=O)N(C)CCc4ccncc4)n3Cc3ccccc32)cc1C` [Example 127, 10-[(2,2′-Dimethyl-[1,1′-biphenyl]-4-yl)carbonyl]-N-methyl-N-[2-(4-pyridinyl)ethyl]-10,11-dihydro-5H-pyrrolo[2,1-c][1,4]benzodiazepine-3-carboxamide], the inhibition at 0.1 µM amounted to 15%. Turning to `COc1cccc(-c2ccc(C(=O)N3Cc4ccc(C(=O)N(C)CCc5ccncc5)n4Cc4ccccc43)cc2C)c1` [Example 128, 10-[(3′-Methoxy-2-methyl-[1,1′-biphenyl]-4-yl)carbonyl]-N-methyl-N-[2-(4-pyridinyl)ethyl]-10,11-dihydro-5H-pyrrolo[2,1-c][1,4]benzodiazepine-3-carboxamide], the inhibition at 0.1 µM was 10%. The result for `COc1ccccc1-c1ccc(C(=O)N2Cc3ccc(C(=O)N(C)CCc4ccncc4)n3Cc3ccccc32)cc1` [Example 129, 10-[(2′-Methoxy-[1,1′-biphenyl]-4-yl)carbonyl]-N-methyl-N-[2-(4-pyridinyl)ethyl]-10,11-dihydro-5H-pyrrolo[2,1-c][1,4]benzodiazepine-3-carboxamide] reads 28%; that for `Cc1ccccc1-c1ccc(C(=O)N2Cc3ccc(C(=O)N(C)CCc4ccncc4)n3Cc3ccccc32)cc1` [Example 130, N-Methyl-10-[(2′-methyl-[1,1′-biphenyl]-4-yl)carbonyl]-N-[2-(4-pyridinyl)ethyl]-10,11-dihydro-5H-pyrrolo[2,1-c][1,4]benzodiazepine-3-carboxamide], 12%; that for `COc1cc(C(=O)N2Cc3ccc(C(=O)N(C)CCc4ccncc4)n3Cc3ccccc32)ccc1-c1ccccc1C` [Example 131, 10-[(2-Methoxy-2′-methyl-[1,1′-biphenyl]-4-yl)carbonyl]-N-methyl-N-[2-(4-pyridinyl)ethyl]-10,11-dihydro-5H-pyrrolo[2,1-c][1,4]benzodiazepine-3-carboxamide], -5%. The result for `COc1cc(-c2ccccc2C)c(Cl)cc1C(=O)N1Cc2ccc(C(=O)N(C)CCc3ccncc3)n2Cc2ccccc21` [Example 132, 10-[(6-Chloro-3-methoxy-2′-methyl-[1,1′-biphenyl]-4-yl)carbonyl]-N-methyl-N-[2-(4-pyridinyl)ethyl]-10,11-dihydro-5H-pyrrolo[2,1-c][1,4]benzodiazepine-3-carboxamide] reads 25%; that for `COc1cccc(-c2cc(OC)c(C(=O)N3Cc4ccc(C(=O)N(C)CCc5ccncc5)n4Cc4ccccc43)cc2Cl)c1` [Example 133, 10-[(6-Chloro-3,3′-dimethoxy-[1,1′-biphenyl]-4-yl)carbonyl]-N-methyl-N-[2-(4-pyridinyl)ethyl]-10,11-dihydro-5H-pyrrolo[2,1-c][1,4]benzodiazepine-3-carboxamide], 15%; that for `COc1cc(C(=O)N2Cc3ccc(C(=O)N(C)CCc4ccncc4)n3Cc3ccccc32)ccc1-c1cccc2ccccc12` [Example 134, 10-[3-Methoxy-4-(naphthalen-1-yl)benzoyl]-N-methyl-N-[2-(4-pyridinyl)ethyl]-10,11-dihydro-5H-pyrrolo[2,1-c][1,4]benzodiazepine-3-carboxamide], 1%. The result for `COc1cccc(-c2ccc(C(=O)N3Cc4ccc(C(=O)N(C)CCc5ccncc5)n4Cc4ccccc43)cc2OC)c1` [Example 135, 10-[(2,3′-Dimethoxy-[1,1′-biphenyl]-4-yl)carbonyl]-N-methyl-N-[2-(4-pyridinyl)ethyl]-10,11-dihydro-5H-pyrrolo[2,1-c][1,4]benzodiazepine-3-carboxamide] reads 35%; that for `CN(CCc1ccncc1)C(=O)c1ccc2n1Cc1ccccc1N(C(=O)c1ccc(-c3cccc4ccccc34)cc1Cl)C2` [Example 136, 10-[2-Chloro-4-(naphthalen-1-yl)benzoyl]-N-methyl-N-[2-(4-pyridinyl)ethyl]-10,11-dihydro-5H-pyrrolo[2,1-c][1,4]benzodiazepine-3-carboxamide], 19%. Turning to `Cc1cc(C(=O)N2Cc3ccc(C(=O)N(C)CCc4ccncc4)n3Cc3ccccc32)ccc1-c1ccccc1C(F)(F)F` [Example 137, N-Methyl-10-{[2-methyl-2′-trifluoromethyl-[1,1′-biphenyl]-4-yl]carbonyl}-N-[2-(4-pyridinyl)ethyl]-10,11-dihydro-5H-pyrrolo[2,1-c][1,4]benzodiazepine-3-carboxamide], the inhibition at 0.1 µM is 11%.

In the case of `COc1ccccc1-c1ccc(C(=O)N2Cc3ccc(C(=O)N4CCCCC4c4cccnc4)n3Cc3ccccc32)cc1C` (stereo not shown) [Example 138, {10-[(2′-Methoxy-2-methyl-[1,1′-biphenyl]-4-yl)carbonyl]-10,11-dihydro-5H-pyrrolo[2,1-c][1,4]benzodiazepin-3-yl}[2-(3-pyridinyl)-1-piperidinyl]methanone], the inhibition at 0.1 µM is 42%. The figure for `COc1ccccc1-c1ccc(C(=O)N2Cc3ccc(C(=O)N4CCCCC4c4cccnc4)n3Cc3ccccc32)cc1` (stereo not shown) [Example 139, {10-[(2′-Methoxy-[1,1′-biphenyl]-4-yl)carbonyl]-10,11-dihydro-5H-pyrrolo[2,1-c][1,4]benzodiazepin-3-yl}[2-(3-pyridinyl)-1-piperidinyl]methanone] is 34%; for `COc1cc(-c2ccccc2C)c(Cl)cc1C(=O)N1Cc2ccc(C(=O)N3CCCCC3c3cccnc3)n2Cc2ccccc21` (stereo not shown) [Example 140, {10-[(6-Chloro-3-methoxy-2′-methyl-[1,1′-biphenyl]-4-yl)carbonyl]-10,11-dihydro-5H-pyrrolo[2,1-c][1,4]benzodiazepin-3-yl}[2-(3-pyridinyl)-1-piperidinyl]methanone] it is 29%; for `COc1ccccc1-c1ccc(C(=O)N2Cc3ccc(C(=O)N4CCCCC4c4cccnc4)n3Cc3ccccc32)cc1OC` (stereo not shown) [Example 141, {10-[(2,2′-Dimethoxy-[1,1′-biphenyl]-4-yl)carbonyl]-10,11-dihydro-5H-pyrrolo[2,1-c][1,4]benzodiazepin-3-yl}[2-(3-pyridinyl)-1-piperidinyl]methanone] it is 40%. The result for `Cc1cc(C(=O)N2Cc3ccc(C(=O)N4CCCCC4c4cccnc4)n3Cc3ccccc32)ccc1-c1ccccc1C(F)(F)F` (stereo not shown) [Example 142, (10-{[2-Methyl-2′-trifluoromethyl-[1,1′-biphenyl]-4-yl]carbonyl}-10,11-dihydro-5H-pyrrolo[2,1-c][1,4]benzodiazepin-3-yl)[2-(3-pyridinyl)-1-piperidinyl]methanone] reads 16%; that for `COc1cc(C(=O)N2Cc3ccc(C(=O)N(C)CCc4ccccn4)n3Cc3ccccc32)ccc1-n1c(C)ccc1C` [Example 144, 10-[4-(2,5-Dimethyl-1H-pyrrol-1-yl)-3-methoxybenzoyl]-N-methyl-N-[2-(pyridin-2-yl)ethyl]-10,11-dihydro-5H-pyrrolo[2,1-c][1,4]benzodiazepine-3-carboxamide], 2%. The result for `COc1cc(C(=O)N2Cc3ccc(C(=O)N4CCN(c5ccccn5)CC4)n3Cc3ccccc32)ccc1-n1c(C)ccc1C` [Example 145, {10-[4-(2,5-Dimethyl-1H-pyrrol-1-yl)-3-methoxybenzoyl]-10,11-dihydro-5H-pyrrolo[2,1-c][1,4]benzodiazepin-3-yl}[4-(pyridin-2-yl)-1-piperazinyl]methanone] reads 2%; that for `COc1cc(C(=O)N2Cc3ccc(C(=O)N4CCN(c5ccncc5)CC4)n3Cc3ccccc32)ccc1-n1c(C)ccc1C` [Example 146, {10-[4-(2,5-Dimethyl-1H-pyrrol-1-yl)-3-methoxybenzoyl]-10,11-dihydro-5H-pyrrolo[2,1-c][1,4]benzodiazepin-3-yl}[4-(pyridin-4-yl)-1-piperazinyl]methanone], 15%. As to `COc1cc(C(=O)N2Cc3ccc(C(=O)N(C)CCc4ccncc4)n3Cc3ccccc32)ccc1-n1c(C)ccc1C` [Example 147, 10-[4-(2,5-Dimethyl-1H-pyrrol-1-yl)-3-methoxybenzoyl]-N-methyl-N-[2-(pyridin-4-yl)ethyl]-10,11-dihydro-5H-pyrrolo[2,1-c][1,4]benzodiazepine-3-carboxamide], the inhibition at 0.1 µM amounted to 21%.
